The source of these data is patent US7906522B2, “2-aminoquinazoline derivatives” (Kyowa Hakko Kirin Co., Ltd, priority 2005, dated 2011).

Series [1] addresses T1, Activated human p38α (Homo sapiens, UniProt Q16539).
T1 construct: purchased Upstate Biotechnology Inc. 14-251
In words: p38MAP kinase inhibition test. The class given is biochemical. Particulars: at a concentration of 1 μmol/L; substrate myelin basic protein, ATP 20 μmol/L, [γ-32P]ATP; read-out: enzyme inhibitory activity. In a few lines:
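Phosphorylation of myelin basic protein (20 μg/assay) by the kinase measured via [γ-32P]ATP incorporation at 20 μmol/L ATP, pH 7.2 MOPS buffer, 30° C. for 15 min. Labelled substrate bound to P81 paper, washed, and quantified by scintillation counting; compounds added in DMSO.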

T1 sequence (Q16539 whole entry): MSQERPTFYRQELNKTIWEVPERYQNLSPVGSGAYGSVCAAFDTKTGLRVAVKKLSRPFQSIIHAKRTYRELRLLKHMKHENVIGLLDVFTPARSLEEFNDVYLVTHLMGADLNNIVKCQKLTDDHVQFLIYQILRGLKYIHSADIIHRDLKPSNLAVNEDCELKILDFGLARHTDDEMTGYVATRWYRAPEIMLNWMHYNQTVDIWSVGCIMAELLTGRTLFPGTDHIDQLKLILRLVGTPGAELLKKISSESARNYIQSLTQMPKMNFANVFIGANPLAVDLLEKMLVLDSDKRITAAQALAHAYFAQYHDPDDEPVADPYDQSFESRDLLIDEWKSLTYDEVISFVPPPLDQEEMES

`CS(=O)(=O)N1CCC(Nc2ncc3cc(-c4cccc(O)c4)c(O)cc3n2)CC1` [Compound 247, 7-Hydroxy-6-(3-hydroxyphenyl)-2-[1-(methylsulfonyl)piperidin-4-ylamino]quinazoline] returned a melting point of 285 to 290 °C. Further, the inhibition at 1 µM in series [1] was at least 50%.
The molecule `CONC(=O)c1ccc(C)c(-c2cc3cnc(NC(C)C)nc3cc2O)c1` [Compound 353, 7-Hydroxy-2-isopropylamino-6-(5-methoxycarbamoyl-2-methylphenyl)quinazoline] returned a melting point of 158 to 161 °C. Besides, the inhibition at 1 µM in series [1] is at least 50%.
On to `CC[C@H](C)Nc1ncc2cc(-c3cc(C(=O)NC4CC4)ccc3C)c(O)cc2n1` [Compound 361, (S)-2-(sec-Butylamino)-6-(5-cyclopropylcarbamoyl-2-methylphenyl)-7-hydroxyquinazoline], for which the melting point was found to be 153 °C. In addition, in series [1], the inhibition at 1 µM is at least 50%.
`CC(C)Nc1ncc2cc(-c3cccc(NC(=O)c4ccnc(N5CCCCC5)c4)c3)c(O)cc2n1` [Compound 349, 7-Hydroxy-2-isopropylamino-6-{3-[(2-piperidinopyridin-4-yl)carbonylamino]phenyl}quinazoline] yielded a melting point of 226 to 227 °C. In series [1], the inhibition at 1 µM was at least 50%.
For `Cc1cccc(C)c1Nc1ncc2cc(-c3cccc(NC(=O)c4ccnc(N5CCOCC5)c4)c3)c(O)cc2n1` [Compound 312, 2-(2,6-Dimethylanilino)-7-hydroxy-6-{3-[(2-morpholinopyridin-4-yl)carbonylamino]phenyl}quinazoline] the same measures were 185 °C and at least 50%.
For `Cc1ccccc1-c1cc2cnc(Nc3c(C)cccc3C)nc2cc1O` [Compound 175, 2-(2,6-Dimethylanilino)-7-hydroxy-6-(2-methylphenyl)quinazoline], the melting point is 220 to 222 °C. For the same molecule, in series [1], the inhibition at 1 µM is at least 50%.
As to `CC(C)Nc1ncc2cc(-c3cccc(C(=O)Nc4ccnc(N5CCOCC5)c4)c3)c(O)cc2n1` [Compound 342, 7-Hydroxy-2-isopropylamino-6-{3-[(2-morpholinopyridin-4-yl)carbamoyl]phenyl}quinazoline], the melting point lay in the range of 255 to 257 °C. In addition, the inhibition at 1 µM in series [1] is at least 50%.
In the case of `Cc1c(F)cc(C(=O)NC2CC2)cc1-c1cc2cnc(NC(C)C)nc2cc1O` [Compound 344, 6-(5-Cyclopropylcarbamoyl-3-fluoro-2-methylphenyl)-7-hydroxy-2-(isopropylamino)quinazoline], the melting point lay within 175 to 177 °C. Moreover, the inhibition at 1 µM in series [1] is at least 50%.
`Cc1ccc(C(=O)NC2CC2)cc1-c1cc2cnc(Nc3c(Cl)cccc3Cl)nc2cc1O` [Compound 319, 6-(5-Cyclopropylcarbamoyl-2-methylphenyl)-2-(2,6-dichloroanilino)-7-hydroxyquinazoline]: the melting point was in the range of 190 to 193 °C. The inhibition at 1 µM in series [1] was at least 50%.
`CCc1cccc(C)c1Nc1ncc2cc(-c3ccccc3C)c(O)cc2n1` [Compound 180, 2-(2-Ethyl-6-methylanilino)-7-hydroxy-6-(2-methylphenyl)quinazoline]: the melting point was in the range of 130 to 133 °C. In addition, in series [1], the inhibition at 1 µM is at least 50%.
In turn, `CC(C)Nc1ncc2cc(-c3cccc(NC(=O)c4cc(F)cc(N5CCOCC5)c4)c3)c(O)cc2n1` [Compound 332, 6-[3-(3-Fluoro-5-morpholinobenzoylamino)phenyl]-7-hydroxy-2-(isopropylamino)quinazoline] showed a melting point of 217 to 219 °C. For the same molecule, the inhibition at 1 µM in series [1] was at least 50%.
Take `CC(C)Nc1ncc2cc(-c3cccc(NC(=O)c4cccc(N5CCOCC5)c4)c3)c(O)cc2n1` [Compound 340, 7-Hydroxy-2-isopropylamino-6-[3-(3-morpholinobenzoylamino)phenyl]quinazoline]: the melting point worked out at 230 °C. Moreover, the inhibition at 1 µM in series [1] was at least 50%.
Take `COc1cc2nc(NC(C)C)ncc2cc1-c1cc(C(=O)NC2CC2)ccc1C` [Compound 236, 6-(5-Cyclopropylcarbamoyl-2-methylphenyl)-2-isopropylamino-7-methoxyquinazoline]: the melting point lay in the range of 122 to 125 °C. Further, in series [1], the inhibition at 1 µM is at least 50%.
The matching figures for `CS(=O)(=O)N1CCC(Nc2ncc3cc(-c4ccccc4Cl)c(O)cc3n2)CC1` [Compound 156, 6-(2-Chlorophenyl)-7-hydroxy-2-[1-(methylsulfonyl)piperidin-4-ylamino]quinazoline]: 268 to 271 °C and at least 50%.
Molecule `CC(C)Nc1ncc2cc(-c3cccc(NC(=O)c4cccc(N(C)C)c4)c3)c(O)cc2n1` [Compound 291, 6-{3-[(3-Dimethylaminophenyl)carbonylamino]phenyl}-7-hydroxy-2-(isopropylamino)quinazoline] displayed a melting point of 150 °C. In addition, the inhibition at 1 µM in series [1] is at least 50%.
With `CC[C@H](C)Nc1ncc2cc(-c3ccccc3C)c(O)cc2n1` [Compound 169, (S)-2-(sec-Butylamino)-7-hydroxy-6-(2-methylphenyl)quinazoline], the melting point turned out to be 165 °C. Further, the inhibition at 1 µM in series [1] was at least 50%.
`CCS(=O)(=O)N1CCC(Nc2ncc3cc(-c4ccccc4Cl)c(O)cc3n2)CC1` [Compound 161, 6-(2-Chlorophenyl)-2-[1-(ethylsulfonyl)piperidin-4-ylamino]-7-hydroxyquinazoline]: the melting point is 251 to 253 °C. Further, in series [1], the inhibition at 1 µM was at least 50%.
`CCC(CC)Nc1ncc2cc(-c3ccccc3C)c(O)cc2n1` [Compound 170, 2-(3-Pentylamino)-7-hydroxy-6-(2-methylphenyl)quinazoline] displayed a melting point of 198 to 200 °C. Moreover, in series [1], the inhibition at 1 µM is at least 50%.
In turn, `Cc1ccc(C(=O)Nc2cccc(N(C)C)c2)cc1-c1cc2cnc(NC(C)C)nc2cc1O` [Compound 324, 6-{5-[(3-Dimethylaminophenyl)carbamoyl]-2-methylphenyl}-7-hydroxy-2-(isopropylamino)quinazoline] yielded a melting point of 217 to 218 °C. In addition, the inhibition at 1 µM in series [1] is at least 50%.
As for `CC(C)Nc1ncc2cc(-c3cccc(NC(=O)c4ccnc(-c5ccc(F)cc5)c4)c3)c(O)cc2n1` [Compound 355, 6-{3-[2-(4-Fluorophenyl)pyridin-4-ylcarbonylamino]phenyl}-7-hydroxy-2-(isopropylamino)quinazoline], the melting point lay within 243 to 245 °C. Besides, the inhibition at 1 µM in series [1] was at least 50%.
Take `Cc1ccc(C(=O)NC2CC2)cc1-c1cc2cnc(NC(C)C)nc2cc1O` [Compound 322, 6-(5-Cyclopropylcarbamoyl-2-methylphenyl)-7-hydroxy-2-(isopropylamino)quinazoline]: the melting point was in the range of 156 to 160 °C. The inhibition at 1 µM in series [1] is at least 50%.
With `Cc1ccc(-n2nc(C)cc2NC(=O)c2ccc(C)c(-c3cc4cnc(NC(C)C)nc4cc3O)c2)cc1` [Compound 357, 7-Hydroxy-2-isopropylamino-6-{2-methyl-5-[5-methyl-2-(4-methylphenyl)-2H-pyrazol-3-ylcarbamoyl]phenyl}quinazoline], the melting point lay within 173 to 175 °C. Besides, in series [1], the inhibition at 1 µM is at least 50%.
`Cc1ccccc1-c1cc2cnc(Nc3ccccc3)nc2cc1O` [Compound 178, 2-Anilino-7-hydroxy-6-(2-methylphenyl)quinazoline] registered a melting point of 234 to 236 °C. In addition, the inhibition at 1 µM in series [1] was at least 50%.
As for `CC[C@H](C)Nc1ncc2cc(-c3ccccc3Cl)c(O)cc2n1` [Compound 163, (S)-2-(sec-Butylamino)-6-(2-chlorophenyl)-7-hydroxyquinazoline], the melting point fell in the range of 173 to 175 °C. In series [1], the inhibition at 1 µM is at least 50%.
`COc1c(NC(=O)c2ccc(C)c(-c3cc4cnc(NC(C)C)nc4cc3O)c2)cc(C(C)(C)C)cc1NS(C)(=O)=O` [Compound 348, 6-{5-[(5-tert-Butyl-2-methoxy-3-methylsulfonylaminophenyl)carbamoyl]-2-methylphenyl}-7-hydroxy-2-(isopropylamino)quinazoline]: the melting point fell in the range of 251 to 253 °C. In addition, the inhibition at 1 µM in series [1] was at least 50%.
Regarding `CC(C)Nc1ncc2cc(-c3cccc(C(=O)Nc4cccc(N(C)C)c4)c3)c(O)cc2n1` [Compound 325, 6-{3-[(3-Dimethylaminophenyl)carbamoyl]phenyl}-7-hydroxy-2-(isopropylamino)quinazoline], the melting point came out at 236 °C. Further, in series [1], the inhibition at 1 µM is at least 50%.
As for `CC(C)Nc1ncc2cc(-c3cccc(C(=O)NC4CC4)c3)c(O)cc2n1` [Compound 334, 6-[3-(Cyclopropylcarbamoyl)phenyl]-7-hydroxy-2-(isopropylamino)quinazoline], the melting point is 250 °C (dec.). The inhibition at 1 µM in series [1] was at least 50%.
In turn, `Cc1ccccc1-c1cc2cnc(Nc3c(Cl)cccc3Cl)nc2cc1O` [Compound 176, 2-(2,6-Dichloroanilino)-7-hydroxy-6-(2-methylphenyl)quinazoline] registered a melting point of 226 to 227 °C. In series [1], the inhibition at 1 µM was at least 50%.
Take `Cc1ccc(NC(=O)c2ccnc(N3CCOCC3)c2)cc1-c1cc2cnc(NC(C)C)nc2cc1O` [Compound 346, 7-Hydroxy-2-isopropylamino-6-{2-methyl-5-[(2-morpholinopyridin-4-yl)carbonylamino]phenyl}quinazoline]: the melting point was in the range of 169 to 172 °C. Besides, the inhibition at 1 µM in series [1] is at least 50%.
Consider `CCC(CC)Nc1ncc2cc(-c3cc(C(=O)NC4CC4)ccc3C)c(O)cc2n1` [Compound 365, 6-(5-Cyclopropylcarbamoyl-2-methylphenyl)-2-(3-pentylamino)-7-hydroxyquinazoline], for which the melting point worked out at 210 °C. In addition, the inhibition at 1 µM in series [1] was at least 50%.

A word on the melting point: it is the temperature of the solid-liquid transition.
